Results: article PMC12165799, “Antimicrobial peptide developed with machine learning sequence optimization targets drug resistant Staphylococcus aureus in mice” (The Journal of Clinical Investigation, 2025)
≈ marks a conversion by molar mass, not a printed value. Read-outs that look alike come from different tables or passages of the source.

Experiments:
S. aureus MW2 = experiment: Minimal inhibitory concentration (MIC) assay, broth microdilution; assay type: cell-based, Staphylococcus aureus; conditions: Staphylococcus aureus
Protocol: 300 Synthesis of peptides
302 Piscataway, NJ, USA).
305 Minimal inhibitory concentration (MIC) assay
We made serial dilutions of 10×
We determined the MIC using OD600
Accordingly, we added 150 mM NaCl,
319 established protocol (5).

S. aureus MW2 membrane = experiment: Propidium iodide-based membrane permeability; assay type: cell-based, Staphylococcus aureus; conditions: S. aureus MW2, 60 minutes
Protocol: 484 min at room temperature in the dark based on a previously established protocol (8). We added 90
485 µl of the dye/bacteria mixture to 10 μl of serially diluted 10× peptide concentration in black, 96-
486 well plates (Cat. no. 3904, Corning, NY, USA) and incubated the plates for 1 hour at room
487 temperature. We measured the fluorescence with excitation and emission wavelengths of 485 nm
488 and 525 nm, respectively in endpoint assay mode using a SpectraMax i3x (Molecular Devices,
489 CA, USA) fluorescence reader.
490 Propidium iodide-based membrane permeability
491 We used a propidium iodide (Thermo Fisher Scientific, MA, USA) fluorescence-based
492 bacterial permeation assay to establish membrane-oriented interactions with the designed peptides
493 based on a previously established protocol (8). We prepared exponential phase S. aureus MW2
494 bacteria and diluted to OD600 = 0.4 in PBS. We added PI dye (final concentration = 2 µM) to the
495 bacteria in 1:10 serial dilutions in black, 96-well plates (Cat. no. 3904, Corning, NY, USA) and
496 incubated the plates for 1 hour at room temperature. We then measured the fluorescence with an
497 excitation wavelength of 584 nm and an emission wavelength of 620 nm in endpoint assay mode
498 using a SpectraMax i3x (Molecular Devices, CA, USA) fluorescence reader.
501 To determine the ATP leakage potential of the peptides, we employed a luciferase-based
502 assay(18). In brief, we washed exponential phase of S. aureus MW2 bacteria three times with PBS
503 (pH 7.4) and adjusted the washed cells to OD600 = 0.4 in PBS. Following treatment of the bacteria
504 with 32 µg/ml of CIT-8 peptide at 37°C for 30 min, we centrifuged the cells at 14,000× g for 5
505 min. We transferred 50 µl of each supernatant fraction to black, clear-bottom, 96-well plates

[1] = tested on: S. aureus MW2 biofilm formation; conditions: 24 hours
Protocol: 349 Prevention of S. aureus MW2 biofilm formation
350 We evaluated the ability of the citropin 1.1-derived peptides to inhibit biofilm formation
351 following an established protocol with modifications (5). In short, we prepared exponential
352 cultures of S. aureus MW2 (adjusted to OD600 = 0.01) in TSB medium (supplemented with 0.2%
353 glucose) from overnight cultures. We added 90 µl of the bacterial culture to 10 µl of serially diluted
354 10× peptide solution in flat-bottomed 96-well polystyrene microtiter plates (Cat no. Corning 3595,
We used TSB medium containing
356 bacteria with water as the positive control, while TSB media with sterile water served as the
357 negative control. After incubation, we carefully removed the TSB medium and washed the wells
358 with PBS (Gibco, MD, USA) to remove loosely attached planktonic cells. We quantified the
359 biomass by staining the biofilms with crystal violet following an established protocol and
360 quantitated the concentration of peptide that inhibits 50% of biofilm formation (MBIC50)(8). We
361 measured the live cell count of the biofilms using XTT dye [2,3-bis(2-methyloxy-4-nitro-5-
362 sulfophenyl)-2H-tertazolium-5-carboxanilide] (ATCC, VA, USA).

[2] = tested on: MRSA (S. aureus MW2) biofilm; experiment: Biofilm viability assay on solid support (MW2); assay type: cell-based, Staphylococcus aureus; conditions: S. aureus MW2, 10 μg/ml, 24 h in PBS
[3] = tested on: VRSA (S. aureus VRS1) biofilm; experiment: Biofilm viability assay on solid support (VRS1); assay type: cell-based, Staphylococcus aureus; conditions: S. aureus VRS1, 10 μg/ml, 24 h in PBS

## CN[C@H](CC(C)C)C(=O)N[C@H]1C(=O)N[C@@H](CC(N)=O)C(=O)N[C@H]2C(=O)N[C@H]3C(=O)N[C@H](C(=O)N[C@H](C(=O)O)c4cc(O)cc(O)c4-c4cc3ccc4O)[C@H](O)c3ccc(c(Cl)c3)Oc3cc2cc(c3O[C@@H]2O[C@H](CO)[C@@H](O)[C@H](O)[C@H]2O[C@H]2C[C@](C)(N)[C@H](O)[C@H](C)O2)Oc2ccc(cc2Cl)[C@H]1O [Vancomycin, reference compound]
S. aureus MW2; MW2, 18 h, read-out: MIC SA
  MIC: ≤ 0.125 µg/mL
S. aureus MW2; read-out: MIC + MgSO4 (1 mM), S. aureus MW2, TSB + 1 mM MgSO4
  MIC: ≤ 1 µg/mL
S. aureus MW2; read-out: MIC + human serum (10%), S. aureus MW2, TSB + 10% human serum
  MIC: ≤ 1 µg/mL
S. aureus MW2; S. aureus MW2, TSB + 8 μM ZnSO4, read-out: MIC + ZnSO4 (8 μM)
  MIC: ≤ 1 µg/mL
S. aureus MW2; S. aureus MW2, TSB + 2.5 mM CaCl2, read-out: MIC + CaCl2 (2.5 mM)
  MIC: ≤ 1 µg/mL
S. aureus MW2; S. aureus MW2, TSB + 150 mM NaCl, read-out: MIC + NaCl (150 mM)
  MIC: ≤ 1 µg/mL
S. aureus MW2; S. aureus MW2, TSB + 5% human serum, read-out: MIC + human serum (5%)
  MIC: ≤ 1 µg/mL
S. aureus MW2; S. aureus MW2, TSB, read-out: MIC, Medium only
  MIC: 1 µg/mL (≈ 0.69 µM)
S. aureus MW2 membrane
  Propidium iodide fluorescence (membrane permeation): did not induce fluorescence
[1]; 4 μg/ml, replicate 1
  Biofilm formation, biomass (crystal violet), percentage of untreated: 8.955
  Biofilm formation, live-cell viability (XTT), percentage of untreated: -0.6369
[1]; 4 μg/ml, replicate 2
  Biofilm formation, biomass (crystal violet), percentage of untreated: 10.0268
  Biofilm formation, live-cell viability (XTT), percentage of untreated: -0.3259
[1]; 4 μg/ml, replicate 3
  Biofilm formation, biomass (crystal violet), percentage of untreated: 18.3626
  Biofilm formation, live-cell viability (XTT), percentage of untreated: -0.3777
[1]; 8 μg/ml, replicate 1
  Biofilm formation, biomass (crystal violet), percentage of untreated: 8.8836
  Biofilm formation, live-cell viability (XTT), percentage of untreated: -0.674
[1]; 8 μg/ml, replicate 2
  Biofilm formation, biomass (crystal violet), percentage of untreated: 11.1462
  Biofilm formation, live-cell viability (XTT), percentage of untreated: -0.4592
[1]; 8 μg/ml, replicate 3
  Biofilm formation, biomass (crystal violet), percentage of untreated: 16.9574
  Biofilm formation, live-cell viability (XTT), percentage of untreated: -0.4518
[1]; 16 μg/ml, replicate 1
  Biofilm formation, biomass (crystal violet), percentage of untreated: 9.955
  Biofilm formation, live-cell viability (XTT), percentage of untreated: -0.5851
[1]; 16 μg/ml, replicate 2
  Biofilm formation, biomass (crystal violet), percentage of untreated: 11.9559
  Biofilm formation, live-cell viability (XTT), percentage of untreated: -0.437
[1]; 16 μg/ml, replicate 3
  Biofilm formation, biomass (crystal violet), percentage of untreated: 14.6234
  Biofilm formation, live-cell viability (XTT), percentage of untreated: -0.4148
[1]; 32 μg/ml, replicate 1
  Biofilm formation, biomass (crystal violet), percentage of untreated: 10.1935
  Biofilm formation, live-cell viability (XTT), percentage of untreated: -0.4962
[1]; 32 μg/ml, replicate 2
  Biofilm formation, biomass (crystal violet), percentage of untreated: 10.384
  Biofilm formation, live-cell viability (XTT), percentage of untreated: -0.5555
[1]; 32 μg/ml, replicate 3
  Biofilm formation, biomass (crystal violet), percentage of untreated: 13.4802
  Biofilm formation, live-cell viability (XTT), percentage of untreated: -0.4073
[2]; replicate 1
  Bacterial load of 24 hour established biofilm on solid membrane: 160000000
[2]; replicate 2
  Bacterial load of 24 hour established biofilm on solid membrane: 18000000
[2]; replicate 3
  Bacterial load of 24 hour established biofilm on solid membrane: 28000000
[2]; replicate 4
  Bacterial load of 24 hour established biofilm on solid membrane: 40000000
[2]; replicate 5
  Bacterial load of 24 hour established biofilm on solid membrane: 20000000
[2]; replicate 6
  Bacterial load of 24 hour established biofilm on solid membrane: 60000000
[3]; replicate 1
  Bacterial load of 24 hour established biofilm on solid membrane: 40000000
[3]; replicate 2
  Bacterial load of 24 hour established biofilm on solid membrane: 40000000
[3]; replicate 3
  Bacterial load of 24 hour established biofilm on solid membrane: 60000000
[3]; replicate 4
  Bacterial load of 24 hour established biofilm on solid membrane: 60000000
[3]; replicate 5
  Bacterial load of 24 hour established biofilm on solid membrane: 20000000
[3]; replicate 6
  Bacterial load of 24 hour established biofilm on solid membrane: 20000000
